Among the test systems are HOP-62 NSCLC; UO-31 renal; SK-MEL-5 melanoma; COLO 205 colon; U251 CNS; IGROV1 ovarian; SK-OV-3 ovarian; NCI-H522 lung; 786-0 renal.
What all share (assay): DTP human tumour cell line panel, 48 h

Values joined by “and” are separate entries in the source; they are usually repeats but may differ in a detail not shown here. Identical values can stand only once.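 These data come from cells grown in 96-well plates and exposed to compound for 48 hours at five concentrations. GI50: concentration for 50% inhibition of growth. At the TGI there is no net growth.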

For orientation: TGI means the concentration at which net growth stops. The low end stands for greater sensitivity of the cells, the high end for lower sensitivity of the cells. As a reminder, the GI50 is the concentration that inhibits growth by half.

`CC1[C@@H]2C[C@@H]3O[C@@]34[C@H]3CCC5Cc6nc7c(nc6C[C@@]5(C)C3(O)CC(=O)[C@@]24CO[C@]12OC(C)(C)CC2O)CC1CC[C@@H]2C3=C[C@H]4O[C@@]5(O[C@@](C)(CO)C[C@@H]5O)C(C)[C@@]4(O)[C@]3(C)[C@@H](O)CC2[C@]1(C)C7` (some centres not stated): the TGI with HOP-62 NSCLC is 0.0729 µM; in the assay with UO-31 renal, 0.755 µM; with SK-MEL-5 melanoma it was above 3.52 µM; with COLO 205 colon it was 0.156 µM; in the assay with U251 CNS, 0.332 µM; in the assay with IGROV1 ovarian it was above 3.52 µM. For the same molecule, the TGI worked out at 0.231 µM in the assay on SK-OV-3 ovarian and 0.653 µM with NCI-H522 lung.

On to `O=c1cc(-c2ccccc2)[nH]c2c(F)ccc(F)c12`, for which the TGI with HOP-62 NSCLC, in the assay with UO-31 renal, with SK-MEL-5 melanoma, in the assay with COLO 205 colon, with U251 CNS and in the assay with IGROV1 ovarian was above 100 µM each time. Also, the TGI in the assay with SK-OV-3 ovarian, with 786-0 renal and with NCI-H522 lung was above 100 µM each time.

Consider `COc1cccc2c1C(=O)c1c(O)c3c(c(O)c1C2=O)C[C@@](O)(C(=O)CO)CC3OC1CC(NCCCCC(OC(C)=O)OC(C)=O)C(O)C(C)O1` (some centres not stated), for which the GI50 with HOP-62 NSCLC was 0.00248 µM; in the assay with SK-MEL-5 melanoma, 0.00152 µM; in the assay with U251 CNS, 0.00266 µM; in the assay with IGROV1 ovarian, 0.00355 µM; in the assay with SK-OV-3 ovarian, 0.00567 µM; in the assay on NCI-H522 lung, 0.00125 µM. Besides, the TGI is 0.0043 µM in the assay with UO-31 renal; 0.00341 µM in the assay with SK-MEL-5 melanoma; above 1 µM in the assay with IGROV1 ovarian; above 1 µM in the assay with SK-OV-3 ovarian; above 1 µM in the assay with 786-0 renal; 0.00344 µM and 0.00513 µM in the assay with NCI-H522 lung.

Regarding `CN(C)CCSc1nccc(-c2ccc(-c3ccnc(SCCN(C)C)n3)s2)n1`, the TGI worked out at 30.6 µM in the assay with HOP-62 NSCLC; 16.6 µM in the assay with UO-31 renal; 31 µM in the assay on SK-MEL-5 melanoma; 21.7 µM in the assay on COLO 205 colon; 26 µM in the assay with U251 CNS; 28.8 µM in the assay with IGROV1 ovarian. Also, the TGI in the assay on SK-OV-3 ovarian was 47.2 µM; in the assay on NCI-H522 lung, 33.5 µM.

As for `N#Cc1nc(C(=O)c2ccccc2)oc1N`, the TGI with HOP-62 NSCLC, in the assay with SK-MEL-5 melanoma, in the assay on U251 CNS, in the assay on IGROV1 ovarian, with SK-OV-3 ovarian and in the assay on 786-0 renal was above 100 µM throughout.

In the case of `C/C(=N/OCCC(=O)O)C1CC1`, the TGI in the assay with HOP-62 NSCLC, with UO-31 renal, in the assay with SK-MEL-5 melanoma, in the assay on COLO 205 colon, with U251 CNS and with IGROV1 ovarian was above 100 µM in each case. In addition, the concentration for total growth inhibition (TGI) in the assay with SK-OV-3 ovarian, in the assay on 786-0 renal and in the assay with NCI-H522 lung was above 100 µM throughout.

For `COc1ccc(OC)c([N+](=O)[O-])c1-c1nc2sc(C)cn2c1/C=N/N=C(N)N`, the TGI with HOP-62 NSCLC is above 100 µM; in the assay on UO-31 renal, above 100 µM; in the assay with SK-MEL-5 melanoma, 49.9 µM; in the assay on U251 CNS, above 100 µM; in the assay with IGROV1 ovarian, 33 µM; with 786-0 renal, above 100 µM. Also, the TGI with NCI-H522 lung came to 46.5 µM.

In the case of `Cc1cc(N)c2cc(NC(=O)CCCCCCCCC(=O)Nc3ccc4nc(C)cc(N)c4c3)ccc2n1`, the TGI in the assay on HOP-62 NSCLC is above 100 µM; with UO-31 renal, above 100 µM; in the assay on SK-MEL-5 melanoma, above 100 µM; in the assay with COLO 205 colon it was above 100 µM; in the assay with U251 CNS, 49.3 µM; in the assay with IGROV1 ovarian, above 100 µM. Moreover, the total growth inhibition concentration (TGI) in the assay on SK-OV-3 ovarian is above 100 µM; in the assay with 786-0 renal, above 100 µM; with NCI-H522 lung it was 5.36 µM.

As to H-KIFKKFKTIIKKVWRIFGRF-NH2, the GI50 in the assay with SK-MEL-5 melanoma is 2.3 µM; in the assay with SK-OV-3 ovarian it was 3.17 µM; in the assay on NCI-H522 lung it was 2.34 µM. The results for the TGI with SK-MEL-5 melanoma, in the assay with SK-OV-3 ovarian and in the assay with NCI-H522 lung were 5.8 µM, 7.39 µM and above 100 µM, respectively.

Take `O=C(O)CSc1nnc(COc2ccccc2)n1-c1ccccc1`: the TGI in the assay on HOP-62 NSCLC, in the assay on UO-31 renal, with SK-MEL-5 melanoma, with COLO 205 colon, in the assay with U251 CNS and with IGROV1 ovarian was above 100 µM each time. Further, the TGI in the assay with SK-OV-3 ovarian, in the assay with 786-0 renal and in the assay with NCI-H522 lung was above 100 µM in each case.

Turning to `CN(C)CC(C)(C)C(=O)/C=C/c1ccccc1`, the TGI was determined as 96.3 µM in the assay on HOP-62 NSCLC; 23 µM in the assay on UO-31 renal; 30.1 µM with SK-MEL-5 melanoma; 26.2 µM in the assay with COLO 205 colon; 30.5 µM with U251 CNS; 59.7 µM in the assay with IGROV1 ovarian. For the same molecule, the TGI with 786-0 renal was determined as 29.9 µM; with NCI-H522 lung it was 23 µM.

With `Cc1cc(C)c(N)c(CO)c1`, the TGI with HOP-62 NSCLC was above 100 µM; in the assay with UO-31 renal, above 100 µM; in the assay on SK-MEL-5 melanoma it was above 100 µM; in the assay with COLO 205 colon it was above 100 µM; in the assay with U251 CNS, above 100 µM; in the assay on IGROV1 ovarian, 33.3 µM and 46.9 µM. Also, the TGI in the assay with SK-OV-3 ovarian, with 786-0 renal and in the assay on NCI-H522 lung was above 100 µM each time. Moreover, the GI50 in the assay on IGROV1 ovarian was 4.25 µM and 10.2 µM; in the assay on NCI-H522 lung, > 100 µM and 42.5 µM.

The values are drawn from PubChem BioAssay (NCI).
